# Data from PMC7365463, “Oxfendazole mediates macrofilaricidal efficacy against the filarial nematode Litomosoides sigmodontis in vivo and inhibits Onchocerca spec. motility in vitro” (PLoS Neglected Tropical Diseases, 2020).
# Read-outs that look alike come from different tables or passages of the source.
# Tests used:
# Brugia malayi = test system: Brugia malayi; set-up: method as in Maeda 1988 (Ref. 14); conditions: 150-200L3 (SC), jird, IP 20mg/kg 5 cons. days, 9 months p.i., necropsy 5 weeks p.t.; ref Maeda 1988 (Ref. 14); cited from earlier work
# Brugia pahangi [1] = conditions: 100L3 (SC), cats, SC 100-400mg/kg x1, patent phase, necropsy 46-51 days p.t.; ref Denham 1979 (Ref. 4); cited from earlier work
# Brugia pahangi [2] = test system: Brugia pahangi; set-up: method as in Devaney 1985 (Ref. 8); conditions: 50L3, balb/c, SC 10 or 50 mg/kg 5 cons. days, 4 days p.i., necropsy 3-4 weeks p.t.; ref Devaney 1985 (Ref. 8); cited from earlier work
# [3] = rats; cited from earlier work
# Onchocerca lupi = test system: Onchocerca lupi; set-up: method as in PMID 29377880; conditions: Onchocerca lupi-infected dogs; cited from earlier work
# [4] = Bioavailability in dog (in-house); conditions: in vivo, oral, in-house data at high dose of 25 mg/kg, read-out: Bioavailability (F)
# Source text: Table 1 Human pharmacokinetic prediction for oxfendazole.
# AMES bacterial assay = conditions: in vitro; cited from earlier work
# mouse lymphoma assay = test system: mouse lymphoma assay; set-up: method as in earlier work; conditions: in vitro; cited from earlier work
# [5] = Plasma pharmacokinetics in mice (oral and subcutaneous); format: in vivo, BALB/c mice; conditions: for AUC(0-t) / Cmax / Tmax / half-life: female, BALB/c, mouse, plasma
# Experimental: Female BALB/c mice (6 to 9-weeks old) were used to determine the plasma concentrations of oxfendazole. Animals were allocated to groups of three animals per dose, such that the mean weight of animals in each group was similar. All animals had access to a certified rodent diet (Beijing Keao […] Co, Ltd) and water ad libitum. In this study, all animals were fasted 12 h before dosing and returned to food 4 h post dose. Commercially available oxfendazole (Sigma Aldrich and Dolthene, Merial) was administered to animals. […] A commercially available formulation of oxfendazole, Dolthene, was diluted in corn oil and administered by oral gavage. After administration of the drug substances by oral gavage, blood samples were collected from each animal via the saphenous or mandibular veins at 0.25, 0.5, 1, 2, 4, 8, 12 and 24 h post dosing. For administration via the sc route, samples were collected from each animal 1, 3, 6, 9, 12, 18, 24, 36, 48, 72, 96, and 120 h post dosing. All samples were transferred into plastic tubes containing K2-EDTA (0.5 M) as an anti-coagulant and stored on ice until plasma preparation by centrifugation at 5°C (3000 g, 15 min). Analysis was conducted by LC-MS/MS (API 4000). Mobile phases were mixtures of acetonitrile (ACN) and water to which formic acid and 1 mM NH4OAc were added (0.025%, v/v). The ratio ACN/water was 5:95 (v/v) in the mobile phase A and 95:5 (v/v) in the mobile phase B. […] Electrospray positive ionization with selected ion MS/MS monitoring was used for the determination of oxfendazole: m/z 316.0/159.1.
# [6] = test system: Litomosoides sigmodontis adult worms; assay: L. sigmodontis-infected mice, adult worm burden; format: in vivo
# Experimental: (Whatman 903 Protein […], Sigma-Aldrich, Germany). […] Mice were sacrificed at 75-78 dpi. […] The mice were anesthetized then sacrificed by bleeding (at MNHN) or by an overdose of isoflurane (at IMMIP). At the MNHN, the pleural cavity was washed 10 times with 1 ml of cold phosphate buffered saline (PBS) to collect filariae as previously described. At the IMMIP, the pleural cavity was washed with 1 ml of PBS. In both laboratories the remaining worms were isolated using forceps. The recovered L. sigmodontis adult worms were counted and analyzed by light microscopy to identify males and females.
# mammalian tubulin = test system: mammalian tubulin; set-up: method as in PMID 6712717, PMID 1554382; conditions: cited from earlier work
# [7] = test system: L. sigmodontis microfilariae; assay: L. sigmodontis microfilariae-injected naïve mice; format: in vivo, Litomosoides sigmodontis; conditions: mice injected with 100,000 microfilariae, BID 2 x 12.5 mg/kg per os for 5 days
# Experimental: To investigate the in vivo efficacy of oxfendazole on microfilariae, microfilariae were isolated from peripheral blood of L. sigmodontis-infected cotton rats according to Chandrashekar et al. (1984) using a sucrose percoll gradient. 100,000 microfilariae were injected into the tail vein of naïve mice as previously described. Microfilariae-injected mice were treated with a commercial formulation of oxfendazole (Dolthene) twice daily with 2 x 12.5 mg/kg per os. As a positive control, additional mice were treated with a single intraperitoneal dose of ivermectin (5 mg/kg) in DMSO/PEG400/H20dest with a ratio of 1:7:2 according to Halliday et al.. Control animals received no treatment.
# [8] = PO, nominal dose 5 mg/kg (administered 4.8)
# [9] = PO, nominal dose 25 mg/kg (administered 26.3)
# [10] = SC, nominal dose 1 mg/kg (administered 1.0)
# [11] = SC, nominal dose 25 mg/kg (administered 27.5)
# [12] = mice, PO 2 x 2.5 mg/kg for 1 day, start 33 dpi, 75 dpi
# [13] = mice, PO 2 x 2.5 mg/kg for 5 days, start 33 dpi, 75 dpi
# [14] = mice, PO 2 x 2.5 mg/kg for 10 days, start 33 dpi, 75 dpi
# [15] = mice, PO BID 2 x 1 mg/kg for 5 days from 35 dpi, necropsy 75 dpi
# [16] = mice, PO BID 2 x 5 mg/kg for 5 days from 35 dpi, necropsy 75 dpi
smiles,measurement,setting,value
COC(=O)Nc1nc2cc(C(=O)c3ccc(F)cc3)ccc2[nH]1 [flubendazole],Reduction of worm burden,Brugia malayi,100%
same,Reduction of worm burden,Brugia pahangi [1],100%
same,Reduction of worm burden,Brugia pahangi [2],100%
COC(=O)Nc1nc2ccc([S+]([O-])c3ccccc3)cc2[nH]1 (stereo not drawn) [oxfendazole],"subacute toxicity, behavioral effects",[3],did not raise safety concerns
same,dermal microfilariae numbers,Onchocerca lupi,no significant decrease in dermal microfilariae numbers
same,bioavailability,[4],~10%
same,toxicity in AMES bacterial assay,AMES bacterial assay,did not exhibit toxicity
same,toxicity in mouse lymphoma assay,mouse lymphoma assay,did not exhibit toxicity
same,Cmax oral versus sc,"[5]; 25 mg/kg, higher in the oral treated group",about 6 times
same,AUC(0-t),[5]; [8],14700 ng·h/mL
same,Cmax,[5]; [8],2530 ng/mL
same,Tmax,[5]; [8],1.67 h
same,half-life,"[5]; PO, nominal dose 5 mg/kg (administered 4.8), read-out: T1/2 (converted)",2.87 h
same,AUC(0-t),[5]; [9],50300 ng·h/mL
same,Cmax,[5]; [9],8590 ng/mL
same,Tmax,[5]; [9],2 h
same,half-life,"[5]; PO, nominal dose 25 mg/kg (administered 26.3), read-out: T1/2 (converted)",1.87 h
same,AUC(0-t),[5]; [10],1280 ng·h/mL
same,Cmax,[5]; [10],131 ng/mL
same,Tmax,[5]; [10],1.67 h
same,half-life,"[5]; SC, nominal dose 1 mg/kg (administered 1.0), read-out: T1/2 (converted)",24.8 h
same,AUC(0-t),[5]; [11],20800 ng·h/mL
same,Cmax,[5]; [11],1450 ng/mL
same,Tmax,[5]; [11],2.33 h
same,half-life,"[5]; SC, nominal dose 25 mg/kg (administered 27.5), read-out: T1/2 (converted)",76 h
same,Cmax,[5]; oral administration of 5 mg/kg,8 µM
same,Cmax,[5]; oral administration of 25 mg/kg,27 µM
same,Tmax,"[5]; other: oral and sc, all groups (oral and sc)",~2 h
same,half-life,"[5]; other: oral and sc, both routes of administration, read-out: half-life T1/2 during the first 12 h (converted)",~2 h
same,AUC0-last oral versus sc,[5]; higher when administered orally,2.4 times
same,terminal half-life sc versus T1/2 by oral route,"[5]; terminal phase starting 12 h after dosing, longer for sc",~40 times
same,minimal efficacious concentration,"[6]; based on subcutaneous treatment at 25 mg/kg in mice, pharmacokinetic analysis",approximately 100 ng/ml
same,macrofilaricidal efficacy,"[6]; mice, BID oral 2 x 5.0 mg/kg for 10 consecutive days",above 85%
same,macrofilaricidal efficacy,"[6]; mice, BID oral 2 x 12.5 mg/kg for 5 days",above 85%
same,median adult worms,[6]; [12],20 worms
same,range of adult worms,[6]; [12],1–47 worms
same,reduction of the adult worm burden,[6]; [12],0%
same,median adult worms,[6]; [13],6.5 worms
same,range of adult worms,[6]; [13],1–16 worms
same,reduction of the adult worm burden,[6]; [13],23.5%
same,median adult worms,[6]; [14],1 worm
same,range of adult worms,[6]; [14],0–4 worms
same,reduction of the adult worm burden,[6]; [14],87.2%
same,adult worm burden reduction,[6]; [15],16.7%
same,median adult worms,[6]; [15],5 adult worms
same,range of adult worms,[6]; [15],1–12 worms
same,adult worm burden reduction,[6]; [16],100%
same,median adult worms,[6]; [16],0 adult worms
same,range of adult worms,[6]; [16],0–5 worms
same,adult worm reduction,"[6]; mice, PO BID 2 x 12.5 mg/kg for 5 days from 35 dpi, necropsy 78 dpi",100%
same,adult worm burden reduction,"[6]; mice, PO BID 2 x 25 mg/kg for 5 days from 35 dpi, necropsy 75 dpi",100%
same,macrofilaricidal outcome,"[6]; mice, SC 1 mg/kg QD for 5 days from 35 dpi, necropsy 78 dpi",no significant reduction of the worm burden
same,macrofilaricidal outcome,"[6]; mice, SC 5 mg/kg QD for 5 days from 35 dpi, necropsy 78 dpi",sterile cure was achieved in all mice except one
same,macrofilaricidal outcome,"[6]; mice, SC 25 mg/kg QD for 5 days from 35 dpi, necropsy 78 dpi",Sterile cure was achieved
same,macrofilaricidal outcome,"[6]; mice, single oral BID dosing, doses up to 125 mg/kg, start 33 dpi, 75 dpi",did not lead to a significant reduction
same,inhibition of mammalian tubulin polymerization,mammalian tubulin,poor inhibition
same,direct microfilaricidal effect in vivo,[7],no direct microfilaricidal effect
